# Where “and” joins values, the source holds several entries; their conditions need not be identical. Equal entries are not always repeated.
# Columns and labels:
# [1] = system: vascular ring; test: Vessel ring bioassay of SNO-Hb preparations, with or without glutathione; settings: for effect of added glutathione on the dose-response: glutathione 100 μM in bioassay chambers
# Excerpt: Arterial red blood cells contain two physiologically important forms of hemoglobin: Hb(FeII)O2 and Hb(FeIII) (Antonini et al. (1971)). […] Such findings raise the possibility of functional consequences, perhaps influenced by the redox state of heme and its occupation by ligand.
# Details of the vessel ring bioassay have been published (Stamler, J. S., et al., Proc. Natl. Acad. Sci. USA 89:444-448 (1992)). SNO-Hb(FeII)O2 preparations were synthesized with 10-fold excess S-nitrosocysteine (CYSNO) over Hb(FeII)O2 protein (2% borate, 0.5 mM EDTA, ˜15 min incubation), after which desalting was performed across Sephadex G-25 columns. CYSNO was synthesized in 0.5 N HCl, 0.5 mM EDTA and then neutralized (1:1) in 1 M phosphate buffer containing 0.5 mM EDTA. […] The latter was synthesized by treatment of Hb(FeII)O2 with excess ferricyanide, followed by desalting across G-25 columns. SNO-Hb concentrations were verified spectroscopically and the S-nitrosothiol content was determined by the method of Saville (Stamler, J. S., et al., Proc. Nat. Acad. Sci. USA 89:444-448 (1992)). The S-NO/tetramer stoichiometry for both SNO-Hb preparations was ˜2. Oxidation of the heme was undetectable by uv-spectrophotometric methods.
# [2] = system: Sprague-Dawley rat; test: Mean arterial pressure after femoral vein bolus of cell-free Hb and SNO-Hbs; format: in vivo
# Excerpt: Systemic administration of cell-free Hb results in hypertensive responses which have been attributed to NO scavenging by the heme (Vogel, W. M., et al., Am. J. Physiol. 251:H413-H420 (1986); Olsen, S. B., et al., Circulation 93:329-332 (1996)). To determine if SNO-Hb is free of this adverse affect, and to explore if in vitro mechanisms of NO release extend to the in vivo circumstance, we compared responses to Hb and SNO-Hb infused as a bolus into the femoral vein of anesthetized rats. […] Thus, the profiles of these compounds in vivo closely resemble those seen in vitro (FIG. 4A). […] These changes in mean blood pressure of ˜10% are on the order of those that differentiate normotension from hypertension in man, and in the therapeutic range of some antihypertensive regimens. […] The bioactivity of SNO-Hb in blood, where S—NO/heme stoichiometries approach 1:50,000, is a dramatic illustration of the resistence of this NO-related activity to Hb(Fe) inactivation.
# Administration of 2-200 nmol/kg Hb(FeII)O2 (as a bolus) into the femoral vein of a Sprague-Dawley rat is shown to increase mean arterial pressure in a dose-dependent manner. At 200 nmol/kg, mean arterial pressure increased by 25 mm Hg (20±3 mm Hg; n=4; P<0.05). Elevations in blood pressure reversed within 10-15 min. SNO-Hb(FeII)O2 infusions (over the same dose range) are shown to ameliorate Hb(FeII)O2-induced hypertension without causing overt changes in blood pressure. […] A fall in blood pressure was also seen with injection of erythrocytes containing SNO-Hb.
# Rats were anesthetized by intraperitoneal injection of pentobarbital and the femoral arteries and veins accessed by local cut down. The artery was then cannulated and the blood pressure monitored continuously using a Viggo Spectramed pressure transducer attached to a Gould recorder. An IBM PC (DATA Q Codas) was used for data acquisition.
# [3] = system: rat red blood cells; test: S-nitrosylation of intraerythrocytic Hb (loading of red blood cells); format: cell-based; settings: for formation of intraerythrocytic SNO-Hb: oxygenated rat red blood cells
# Experimental: Given that Hb is largely contained within red blood cells, potential mechanisms by which S-nitrosylation of intracellular protein might occur were explored. […] Rapid oxidation of Hb was not observed under these conditions. […] Thus, erythrocyte access of RSNOs is thiol group specific.
# Incubation of rat erythrocytes with S-nitrosocysteine (equimolar to heme (5 mM); phosphate buffer pH 7.4, 25° C.) leads to rapid formation of intracellular SNO-Hb(FeII)O2. […] By 60 min, 3 of the 4 available SH groups of Hb are S-nitrosylated (note that rat Hb contains 4 reactive SH groups). […] Spectrum A is that of SNO-Hb isolated from erythrocytes following G-25 chromatography. Treatment of A with dithionite results in reduction of the S—NO moiety, liberating free NO which is autocaptured by deoxy Hb, forming Hb(FeII)NO (note that dithionite simultaneously deoxygenates Hb) (spectrum C). […] The spectrum of Hb(FeII)NO containing 4 NO's per tetramer is shown for comparison (inset, spectrum B).
# At shown intervals, red blood cells were pelleted rapidly by centrifugation, washed three times, lysed in deionized water at 4° C., and the cytosolic fraction subjected to rapid desalting across G-25 columns. Intracellular SNO-Hb was measured by the method of Saville (Gaston, B., et al., (1992); Stamler, J. S., et al., Proc. Natl. Acad. Sci. USA, 89:444-448 (1992)), and confirmed spectroscopically (inset of FIG. 3A) as described above.
# [4] = system: rabbit thoracic aorta rings; test: Rabbit aortic ring bioassay: native and blocked Hb preparations, vessel tone and ACh (EDRF) relaxation; settings: 1 μM
# Excerpt: Hb-mediated inhibition of endothelium-dependent relaxations is commonly used as a marker of NO responses. Inasmuch as reactions with either metal or thiol centers of Hb should lead to attenuated NO/EDRF (endothelium-derived relaxing factor) responses, we attempted to elucidate the molecular basis of inhibition. Hb preparations in which β93 thiol groups had been blocked with N-ethylmaleimide (NEM) or the hemes blocked by cyanmet (FeIIICN)-derivitization were studied in an aortic ring bioassay, and their activities compared with that of native Hb. Both cyanmet-Hb and NEM-Hb caused increases in vessel tone and attenuated acetylcholine (EDRF)-mediated relaxations (FIG. 3B). […] To verify formation of an S-nitrosothiol in Hb, we established a bioassay in which 2 cm segments of thoracic aorta were interposed in Tygon tubing, through which 3 cc of Krebs solution containing Hb (4 μM) and ACh (2 μM) were circulated by roller pump (1.5 cc/min×5 min).
# The effects of native Hb on EDRF responses were compared with Hb preparations in which the thiol or heme centers had been blocked by alkylation or cyanmet derivitization, respectively. All preparations of Hb elicited contractions; however, those of native Hb (in which both SH and metal centers are free for interaction) were most pronounced. […] Relaxations were inhibited to lesser degrees by cyanmet Hb (CN-Hb)(in which hemes were blocked from reaction) and NEM-Hb (in which thiol groups were alkylated by N-ethylmaleimide). […] Direct measurement of SNO-Hb, formed from EDRF under similar conditions, is described in Example 8.
# Descending rabbit thoracic aorta were cut into 3 mm rings and mounted on stirrups attached to force transducers (model FT03, Grass Instruments, Quincy, Mass.) for measurement of isometric tone. The details of this bioassay system have been previously described (Stamler, J. S., et al., Proc. Natl. Acad. Sci. USA 89:444-448 (1992)). Cyanmet Hb was prepared from human HbA according to published protocols (Kilbourn, R. G. et al. Biochem. Biophy. Res. Comm. 199:155-162, (1994)). Alkylation of HbA with N-ethylmaleimide was followed by desalting across G-25 Sephadex to remove excess NEM. Removal of unmodified Hbcysβ93 was achieved by passage through Hg-containing affinity columns. The alkylation of free SH groups was verified using 5,5′-dithio-bis[2-nitrobenzoic acid].
# [5] = system: Sprague-Dawley rats; test: Local cerebral blood flow by H2-sensitive microelectrodes; format: in vivo, rat; settings: 1 μmol/kg infused over 3 minutes
# Experimental: Adult male Sprague-Dawley rats (290-350 g) were anesthetized with sodium pentobarbital (50 mg/kg IP), intubated and ventilated with a small animal respirator (Edco Scientific Inc., Chapel Hill, N.C.) at a rate and tidal volume to maintain normal values of PaCO2 (35-45 mm Hg; PaCO2=systemic arterial blood carbon dioxide tension). The femoral vein and artery were cannulated for infusion of drugs and for continuous monitoring of systemic blood pressure, respectively. Aliquots of arterial blood (200 μl) were drawn periodically to measure blood gas tensions and pH (Instrumentation Laboratory Co., model 1304 blood gas/pH analyzer). The blood was replaced intravenously with three volumes of normal saline. The inspired O2 concentration was varied using premixed gases balanced with nitrogen. The tissue PO2 was measured continuously with polarographic platinum microelectrodes (50 μm O.D. coated with hydrophobic gas permeable Nafion) implanted stereotaxically in both the right and left hippocampus (AP−3.4 mm, ML+2.2 mm), caudate putamen nucleus and substantia nigra (see coordinates below) (Young, W., Stroke, 11:552-564 (1980); Heiss, W. D. and Traupett, H., Stroke, 12:161-167 (1981); Dewhirst, M. W. et al., Cancer Res., 54:3333-3336 (1994); Kerger, H. et al., Am. J. Physiol., 268:H802-H810 (1995)). The PO2 electrodes were polarized to −0.65V against a distant Ag/AgCl reference located on the tail and the current flow was measured using a low-impedance nA-meter. Regional arterial PO2 was adjusted by changing the inspired O2 concentration and atmospheric pressure.
# Polarographic hydrogen (H2)-sensitive microelectrodes were implanted stereotaxically in the substantia nigra (AP −5.3 mm, ML −2.4 mm to the bregma, depth 3.2 mm), caudate putamen nucleus (CPN) (AP +0.8 mm, ML −2.5 mm, depth 5.2 mm) and parietal cortex, for measurement of regional blood flow (Young, W., Stroke, 11:552-564 (1980); Heiss, W. D. and Traupett, H., Stroke, 12:161-167 (1981)). The microelectrodes were made from platinum wire and insulated with epoxy, with the exception of the tip (1 mm) which was coated with Nafion. For placement, the electrodes were mounted on a micromanipulator and the rat's head was immobilized in a Kopf stereotaxic frame. H2-sensitive electrodes were polarized to +400 mV against a distant reference electrode on the tail, and the polarographic current was measured using a low-impedance nA meter during and after the inhalation of hydrogen gas (2.5%) for 1 min. Both the hydrogen clearance curves and voltage for oxygen measurements were made using PC WINDAQ (software, DI-200 AC, Dataq Instruments, Inc., Akron, Ohio). Cerebral blood flow was calculated using the initial slope method (Young, W., Stroke, 11:552-564 (1980); Heiss, W. D. and Traupett, H., Stroke, 12:161-167 (1981)). Regional blood flow responses were monitored for 30 min. prior to and 30 min. following drug administration; hemoglobins were given at time 0.
# The cerebrovascular effects of SNO-Hb were measured in adult male Sprague-Dawley rats using O2 and H2 (blood flow)-sensitive microelectrodes that were placed stereotaxically in several regions of the brain as for Example 11.
# Comparative effects of SNO-Hb (●) and Hb (▪) (1 μmol/kg infused over 3 minutes) on local blood flow in substantia nigra (SN), caudate putamen nucleus, and parietal cortex are shown for three different conditions. […] Baseline blood flow was decreased by ˜10% under 100% O2+3 ATA as compared to 100% O2. n=7 for all data points. Values of tissue/microvascular PO2 ranged from 19-37 mm Hg in 21% O2; from 68-138 mm Hg in 100% O2; and from 365-538 mm Hg in 100%+3 ATA (Duke University Medical Center Hyperbaric Chambers).
# [6] = system: rabbit thoracic aorta rings; test: Oxygen-dependent rabbit aortic ring bioassay of Hb, SNO-Hb, GSNO and SNO-RBCs
compound,measurement,setting,value
"Hb(FeII)O2: oxyhemoglobin, cell-free [reference compound]",effect of added glutathione on the dose-response,[1],did not significantly influence the response
same,increase in mean arterial pressure,"[2]; 200 nmol/kg bolus, femoral vein, anesthetized rat",20±3 mm Hg and 25 mm Hg
same,time for elevations in blood pressure to reverse,[2]; 2-200 nmol/kg bolus,10 to 15 min
"[N]=O [NO, nitric oxide, reference compound]",formation of intraerythrocytic SNO-Hb,[3],primarily in metHb formation
N[C@@H](CCSN=O)C(=O)O [S-nitrosohomocysteine],formation of intraerythrocytic SNO-Hb,[3],Intraerythrocytic SNO-Hb also formed
"CN-Hb: cyanmet Hb, in which hemes were blocked from reaction",% ACh RELAXATION,[4],80.7 ± 1.0 † (n = 4) %
same,% INCREASE IN TENSION,[4],12.9 ± 3.0 (n = 6) %
Hb: native cell-free human hemoglobin purified from red cells [reference compound],local cerebral blood flow,[5]; 21% O2,decreased local blood flow
same,local cerebral blood flow,[5]; 100% O2,decrease in flow was preserved
same,local cerebral blood flow,[5]; 100% O2+3 ATA,tended to decrease cerebral flow to similar extents
same,% ACh RELAXATION,[4],31.9 ± 6.9 (n = 7) %
same,% INCREASE IN TENSION,[4],40.8 ± 2.3 (n = 7) %
same,effect on tone of rings contracted with phenylephrine under hypoxia,"[6]; 1 μM, 6-7 torr",progressive increases in vessel tone
N[C@@H](CSN=O)C(=O)NCC(=O)O [S-nitrosocysteinylglycine],formation of intraerythrocytic SNO-Hb,[3],Intraerythrocytic SNO-Hb also formed
"CC(=O)OCC[N+](C)(C)C [ACh, acetylcholine]",% ACh RELAXATION,[4],98.3 ± 0.6 (n = 10) %
NEM-Hb: Hb in which thiol groups were alkylated by N-ethylmaleimide,% ACh RELAXATION,[4],60.5 ± 3.9 (n = 7) %
same,% INCREASE IN TENSION,[4],29.4 ± 1.3 (n = 7) %
N[C@@H](CSN=O)C(=O)O [S-nitrosocysteine],SH groups of Hb S-nitrosylated,"[3]; of the 4 available SH groups of rat Hb, by 60 min, equimolar to heme (5 mM), pH 7.4, 25° C.",3
same,formation of intraerythrocytic SNO-Hb,[3],very rapid formation of intracellular SNO-Hb(FeII)O2
SNO-Hb(FeII)O2: S-nitroso-oxyhemoglobin,effect of added glutathione on the dose-response,[1],potentiates the dose-response
same,activity in vascular ring bioassay,[1]; no glutathione,modest NO-like activity
same,blood pressure response,"[2]; bolus, femoral vein, anesthetized rat",did not exhibit hypertensive effects
deoxyHb: deoxygenated hemoglobin [reference compound],effect on vessel tone in T-structure,[6]; <1% O2 (˜6 torr),powerful contractile agent
